Results as given in patent US5294603A, “Pharmaceutical compositions containing didemnins” (The Board of Trustees of The University of Illinois, priority 1992, dated 1994).
Values after ≈ are worked out from the molar mass of the structure shown. Read-outs that look alike come from different tables or passages of the source. Numbered stars: 1 amine (or outer) side, 2 acyl side, 3 side chain; on linkers, the order of the positions; unused ones are H or OH. Bridge positions count the residues as written; N and C are the ends. Square brackets hold non-standard residues; d marks the D form. Peptide text beside a SMILES is read from it. * marks the point of attachment. X7 = CC[C@H](C)[C@@H](N[*:1])[C@@H](O)CC(=O)O[C@H](C(=NO)[C@H](C)C(=O)[*:2])C(C)C; X1 = CC[C@H](C)[C@@H](N[*:1])[C@@H](O)CC(=O)O[C@H](C(=O)[C@H](C)C(=O)[*:2])C(C)C; X3 = CC[C@H](C)[C@H](N[*:1])[C@@H](O)CC(=O)O[C@H](C(=O)[C@H](C)C(=O)[*:2])C(C)C; NMeY = CN[C@@H](Cc1ccc(O)cc1)C(=O)O; aThr = C[C@H](O)[C@H](N)C(=O)O; dNMeL = CN[C@H](CC(C)C)C(=O)O; Isobutyryl = CC(C)C(=O)*; Aze = O=C(O)[C@@H]1CCN1; Pyruvoyl = CC(=O)C(=O)*; Propionyl = CCC(=O)*

Assays:
Visna virus (VIV) = assay type: cell-based; set-up: key to % Protection / VIV Protection: I, indeterminate
[1] = tested on: L1210 murine leukemia cells; settings: Table 9
[2] = tested on: cells of the VIV assay (not named)
[3] = tested on: Nb2 cells, rat T-cell node lymphoma; assay: Competitive binding with [3H]didemnin B to Nb2 cells; settings: 3 h at 37° C.
Experimental: The immunosuppressive assay was performed by measuring competitive binding of tested compounds with [^3 H]didemnin B to Nb2 cells, rat T-cell node lymphoma. See, Russell, D. H., et al., J. Immunology, 1987, 138, 276-284.
^a Competing didemnins incubated with approximately 25 ng of [^3

[4] = tested on: BHK = Baby hamster kidney cells
L1210 [5] = tested on: L1210
L1210 [6] = assay: L1210 cytotoxicity, inhibition at fixed doses (Table 10); assay type: cell-based, murine
[7] = tested on: DNA synthesis in Nb2 node lymphoma cells; assay: Inhibition of ongoing DNA synthesis in prolactin-stimulated Nb2 cells; assay type: cell-based, rat; settings: Nb2 cells stimulated with prolactin for 24 h
Experimental: Also inhibitions of protein and DNA synthesis of several compounds were measured using Nb2 node lymphoma cells which were stimulated by a treatment of cells with prolactin. (ibid.)
^a Nb2 cells were stimulated with prolactin for 24 h, then exposed to
^b 50% Inhibitory concentration, calculated with linear regression

SMILES | VIV Protection (Visna virus (VIV)) | Cytotoxicity L1210 IC50 [1] | Inhibition of [3H]didemnin B binding (%) ([3]; 0.001 μg/mL) | Inhibition of [3H]didemnin B binding (%) ([3]; 0.01 μg/mL) | Inhibition of [3H]didemnin B binding (%) ([3]; 0.1 μg/mL) | Inhibition of [3H]didemnin B binding (%) ([3]; 1 μg/mL) | BHK [4] | further results
CCC(=O)N(C)[C@H](CC(C)C)C(=O)N[C@@H]1C(=O)N[C@H]([C@@H](C)CC)[C@@H](O)CC(=O)O[C@@H](C(C)C)C(=O)[C@H](C)C(=O)N[C@@H](CC(C)C)C(=O)N2CCC[C@H]2C(=O)N(C)[C@@H](Cc2ccc(OC)cc2)C(=O)O[C@@H]1C [(N-Propionyl)Didemnin A (98), N-propionyl-didemnin A] (Propionyl-[dNMeL]T[X1]LP[NMeY](Me); ester 2-C) | I | 0.3 ng/mL | 3% | 2% | 40% | 72% | 0, PT | VIV Toxicity [2]: 92; cytotoxicity (result in words) (L1210 [5]; Table 1 footnote and text): retained the cytotoxicity of didemnin B; Cytotoxicity percent L1210 inhibition (L1210 [5]; dose 5 ng/mL): 93%; Cytotoxicity percent L1210 inhibition (L1210 [5]; dose 12.5 ng/mL): 95%; Cytotoxicity percent L1210 inhibition (L1210 [5]; dose 25 ng/mL): 95%
Cc1cn([C@H]2C[C@H](N=[N+]=[N-])[C@@H](CO)O2)c(=O)[nH]c1=O [AZT, reference compound] | – | – | – | – | – | – | – | % Cytotoxicity ([2]; 1 µM): 5; % Cytotoxicity ([2]; 3 µM): 7; % Cytotoxicity ([2]; 10 µM): 11; % Cytotoxicity ([2]; 30 µM): 14
CC[C@H](C)[C@H]1NC(=O)[C@@H](NC(=O)[C@@H](CC(C)C)NC)[C@@H](C)OC(=O)[C@H](Cc2ccc(OC)cc2)N(C)C(=O)[C@@H]2CCCN2C(=O)[C@H](CC(C)C)NC(=O)[C@@H](C)C(=O)[C@H](C(C)C)OC(=O)C[C@@H]1O [Didemnin A (1), Didemnin A, reference compound] (H-[dNMeL]T[X1]LP[NMeY](Me); ester 2-C) | < 0 | 30 ng/mL | 3% | 8% | 20% | 35% | – | Inhibition (%) (L1210 [6]; dose 25 ng/mL, tested 4/22/1990): 80%; Inhibition (%) (L1210 [6]; dose 250 ng/mL, tested 4/22/1990): 100%; IC50 DNA [7]: 2000 ng/mL (≈ 2120 nM); Cytotoxicity percent L1210 inhibition (L1210 [5]; dose 5 ng/mL): 0%; Cytotoxicity percent L1210 inhibition (L1210 [5]; dose 12.5 ng/mL): 19%; Cytotoxicity percent L1210 inhibition (L1210 [5]; dose 25 ng/mL): 25%
CC[C@H](C)[C@H]1NC(=O)[C@@H](NC(=O)[C@@H](CC(C)C)N(C)C(=O)[C@@H]2CCCN2C(=O)C(C)O)[C@@H](C)OC(=O)[C@H](Cc2ccc(OC)cc2)N(C)C(=O)[C@@H]2CCCN2C(=O)[C@H](CC(C)C)NC(=O)[C@@H](C)C(=O)[C@H](C(C)C)OC(=O)C[C@@H]1O (some centres unmarked) [Didemnin B (17), Didemnin B, reference compound] | – | 0.5 ng/mL | 3% | 7% | 59% | 77% | – | Inhibition (%) (L1210 [6]; dose 25 ng/mL, tested 4/18/1991): 99%; Inhibition (%) (L1210 [6]; dose 250 ng/mL, tested 4/18/1991): 99%; IC50 DNA [7]: 90 ng/mL (≈ 80.9 nM); Cytotoxicity percent L1210 inhibition (L1210 [5]; dose 5 ng/mL): 93%; Cytotoxicity percent L1210 inhibition (L1210 [5]; dose 12.5 ng/mL): 95%; Cytotoxicity percent L1210 inhibition (L1210 [5]; dose 25 ng/mL): 95%; IC50 (L1210 cells): 0.5 ng/mL (≈ 0.449 nM)
CC[C@H](C)[C@H]1NC(=O)[C@@H](NC(=O)[C@@H](CC(C)C)N(C)C(=O)[C@@H](N)CC(C)C)[C@@H](C)OC(=O)[C@H](Cc2ccc(OC)cc2)N(C)C(=O)[C@@H]2CCCN2C(=O)[C@H](CC(C)C)NC(=O)[C@@H](C)C(=O)[C@H](C(C)C)OC(=O)C[C@@H]1O [N-(L-Leu)Didemnin A (99), N-(L-Leu)didemnin A] (H-L[dNMeL]T[X1]LP[NMeY](Me); ester 3-C) | – | 4 ng/mL | – | – | – | – | 0, PT | –
CC[C@H](C)[C@H]1NC(=O)[C@@H](NC(=O)[C@@H](CC(C)C)N(C)C(=O)[C@@H]2CCCN2)[C@@H](C)OC(=O)[C@H](Cc2ccc(OC)cc2)N(C)C(=O)[C@@H]2CCCN2C(=O)[C@H](CC(C)C)NC(=O)[C@@H](C)C(=O)[C@H](C(C)C)OC(=O)C[C@@H]1O [N-(L-Pro)Didemnin A (100), N-(L-Prolyl) didemnin A] (H-P[dNMeL]T[X1]LP[NMeY](Me); ester 3-C) | < 0 | 4 ng/mL | – | – | – | – | 0, PT | –
CC[C@H](C)[C@@H]1NC(=O)[C@@H](NC(=O)[C@@H](CC(C)C)N(C)C(C)=O)[C@H](C)OC(=O)[C@H](Cc2ccc(OC)cc2)N(C)C(=O)[C@@H]2CCCN2C(=O)[C@H](CC(C)C)NC(=O)[C@@H](C)C(=O)[C@H](C(C)C)OC(=O)C[C@@H]1O [N-Acetyldidemnin A (54), N-Acetyl didemnin A] (Ac-[dNMeL][aThr][X3]LP[NMeY](Me); ester 2-C) | I | 0.3 ng/mL | 2% | 12% | 72% | 80% | – | VIV Toxicity [2]: 94; IC50 DNA [7]: 70 ng/mL (≈ 71 nM); Cytotoxicity percent L1210 inhibition (L1210 [5]; dose 5 ng/mL): 89%; Cytotoxicity percent L1210 inhibition (L1210 [5]; dose 12.5 ng/mL): 93%; Cytotoxicity percent L1210 inhibition (L1210 [5]; dose 25 ng/mL): 94%
COc1ccc(C[C@H]2C(=O)O[C@H](C)[C@H](NC(=O)C(CC(C)C)N(C)C(=O)[C@@H]3CCCN3C(=O)[C@H](C)O)C(=O)N[C@H](C(C)C)[C@@H](O)CC(=O)O[C@@H](C(C)C)C(=O)[C@H](C)C(=O)N[C@@H](CC(C)C)C(=O)N3CCC[C@H]3C(=O)N2C)cc1 (some centres unmarked) [Nordidemnin B (22), Nordidemnin B] | -25 | 1 ng/mL | – | – | – | – | 0, PT | –
CC[C@H](C)[C@H]1NC(=O)[C@@H](NC(=O)[C@@H](CC(C)C)NC)[C@@H](C)OC(=O)[C@H](Cc2ccc(OC)cc2)N(C)C(=O)[C@@H]2CCCN2C(=O)[C@H](CC(C)C)NC(=O)[C@@H](C)[C@@H](O)[C@H](C(C)C)OC(=O)C[C@@H]1OC(C)=O [O-Acetyl-[H2-(2S,3R,4S)Hip^2]didemnin A] | – | 1000 ng/mL | 0% | 0% | 2% | 19% | – | CV-1 (CV-1 monkey kidney cells): 0
CC[C@H](C)[C@H]1NC(=O)[C@@H](NC(=O)[C@@H](CC(C)C)NC)[C@@H](C)OC(=O)[C@H](Cc2ccc(OC)cc2)N(C)C(=O)[C@@H]2CCCN2C(=O)[C@H](CC(C)C)NC(=O)[C@@H](C)C(=O)[C@H](C(C)C)OC(=O)C[C@@H]1OC(C)=O [O-Acetyldidemnin A (114), O-Acetyldidemnin A] | – | 300 ng/mL | 1% | 4% | 15% | 10% | 0, PT | IC50 DNA [7]: 270,000 ng/mL
CC[C@H](C)[C@H]1NC(=O)[C@@H](NC(=O)[C@@H](CC(C)C)N(C)C(=O)[C@@H]2CCN2C(=O)C(C)=O)[C@@H](C)OC(=O)[C@H](Cc2ccc(OC)cc2)N(C)C(=O)[C@@H]2CCCN2C(=O)[C@H](CC(C)C)NC(=O)[C@@H](C)C(=O)[C@H](C(C)C)OC(=O)C[C@@H]1O [Pyruv-Azt-DA, Pyruv-Azt Didemnin A] (Pyruvoyl-[Aze][dNMeL]T[X1]LP[NMeY](Me); ester 3-C) | – | – | – | – | – | – | – | % Protection (Visna virus (VIV)): I; % Cytotoxicity [2]: 77; IC50 (L1210 cells): 0.6 ng/mL (≈ 0.547 nM)
CC[C@H](C)[C@H]1NC(=O)[C@@H](NC(=O)[C@@H](CC(C)C)NC)[C@@H](C)OC(=O)[C@H](Cc2ccc(OC)cc2)N(C)C(=O)[C@@H]2CCCN2C(=O)[C@H](CC(C)C)NC(=O)[C@@H](C)C(=NO)[C@H](C(C)C)OC(=O)C[C@@H]1O [[HydroxyiminoHip^2]-Didemnin A (65), [HydroxyiminoHip^2]didemnin A] (H-[dNMeL]T[X7]LP[NMeY](Me); ester 2-C) | – | 20 ng/mL | – | – | – | – | – | CV-1 (CV-1 monkey kidney cells): 0
CC[C@H](C)[C@H]1NC(=O)[C@@H](NC(=O)[C@@H](CC(C)C)N(C)C(=O)[C@H]2CCCN2C(=O)C(C)C)[C@@H](C)OC(=O)[C@H](Cc2ccc(OC)cc2)N(C)C(=O)[C@@H]2CCCN2C(=O)[C@H](CC(C)C)NC(=O)[C@@H](C)C(=O)[C@H](C(C)C)OC(=O)C[C@@H]1O [[Isobutyryl^9 -D-Pro^8]didemnin B] (Isobutyryl-[dP][dNMeL]T[X1]LP[NMeY](Me); ester 3-C) | – | 10 ng/mL | 0% | 0% | 25% | 69% | 0, PT | –
CCC(=O)N1CCC[C@H]1C(=O)N(C)[C@H](CC(C)C)C(=O)N[C@@H]1C(=O)N[C@H]([C@@H](C)CC)[C@@H](O)CC(=O)O[C@@H](C(C)C)C(=O)[C@H](C)C(=O)N[C@@H](CC(C)C)C(=O)N2CCC[C@H]2C(=O)N(C)[C@@H](Cc2ccc(OC)cc2)C(=O)O[C@@H]1C [[Propionyl^9] Didemnin B (104), [Propionyl^9]didemnin B] (Propionyl-P[dNMeL]T[X1]LP[NMeY](Me); ester 3-C) | -113 | 0.2 ng/mL | – | – | – | – | 0, PT | –
